Consider five compounds from patent US5789416A, “N^6 mono heterocyclic substituted adenosine derivatives” (CV Therapeutics, priority 1996, dated 1998).

Type in all cases: cell-based
In test [1] the test system is adenosine A1 receptor. The test is described as follows: A1 receptor mediated inhibition of isoproterenol stimulated cAMP accumulation in DDT cells. The settings on record: for A1 /A2: ratio of EC50 in DDT cells (A1) to EC50 in PC12 cells (A2). An excerpt: (§1) The first was the A1 receptor mediated inhibition of isoproterenol stimulated cAMP accumulation in DDT cells. The EC50 of each derivative is shown in Table I. Also shown in Table I is the ability of each derivative to stimulate cAMP production in PC12 cells, a function of agonist stimulation of adenosine A2 receptors. The ratio of the relative potency of each compound in stimulating either an A1 receptor or an A2 receptor effect is termed the selectivity of each compound for the A1 receptor.

Test [2] concerns the target T1, adenosine A1 receptor (Mesocricetus auratus, UniProt A0A1U8BVR4).
T1 construct: endogenous in cells
T1 sequence (A0A1U8BVR4 1-326): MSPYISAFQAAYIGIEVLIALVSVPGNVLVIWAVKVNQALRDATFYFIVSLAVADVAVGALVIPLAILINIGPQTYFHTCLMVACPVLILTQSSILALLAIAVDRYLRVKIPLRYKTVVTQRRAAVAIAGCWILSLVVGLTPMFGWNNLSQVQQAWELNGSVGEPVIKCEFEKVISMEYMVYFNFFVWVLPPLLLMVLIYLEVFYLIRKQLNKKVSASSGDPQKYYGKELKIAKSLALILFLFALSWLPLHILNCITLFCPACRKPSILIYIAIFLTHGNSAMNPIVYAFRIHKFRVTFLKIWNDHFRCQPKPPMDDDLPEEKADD
The test is described as above. The following applies: DDT cells; inhibition of isoproterenol stimulated cAMP accumulation (A1 agonism).
Text: as §1
(In general: Cyclic AMP is a second messenger, typically raised through Gs and lowered through Gi signalling.)

Test [3] deals with T2, adenosine A2 receptors (Rattus norvegicus, UniProt P30543).
T2 construct: stimulate cAMP production in PC12 cells, a function of agonist stimulation of adenosine A2 receptors; endogenous in cells; host or cells: PC12 cells
T2 sequence (P30543 whole entry): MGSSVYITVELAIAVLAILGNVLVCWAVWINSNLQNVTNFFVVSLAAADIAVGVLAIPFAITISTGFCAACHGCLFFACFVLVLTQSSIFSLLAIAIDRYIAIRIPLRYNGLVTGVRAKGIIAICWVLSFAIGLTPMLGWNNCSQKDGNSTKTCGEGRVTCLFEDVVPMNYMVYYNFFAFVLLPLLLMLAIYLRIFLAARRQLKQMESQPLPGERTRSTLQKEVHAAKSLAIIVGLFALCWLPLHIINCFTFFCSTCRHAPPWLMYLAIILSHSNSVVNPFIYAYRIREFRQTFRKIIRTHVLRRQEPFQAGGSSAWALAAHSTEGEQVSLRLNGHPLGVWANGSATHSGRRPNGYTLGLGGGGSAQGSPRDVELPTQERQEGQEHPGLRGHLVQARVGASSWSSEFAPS
The test is described as follows: stimulation of cAMP production in PC12 cells (adenosine A2 receptor agonist function). The following applies: stimulation of cAMP production (A2 agonism). As to the method: Compounds of this invention prepared according to the method of Example 1 were tested in two functional models specific for adenosine A1 receptor agonist function. The first was the A1 receptor mediated inhibition of isoproterenol stimulated cAMP accumulation in DDT cells. The EC50 of each derivative is shown in Table I. Also shown in Table I is the ability of each derivative to stimulate cAMP production in PC12 cells, a function of agonist stimulation of adenosine A2 receptors. The ratio of the relative potency of each compound in stimulating either an A1 receptor or an A2 receptor effect is termed the selectivity of each compound for the A1 receptor. […] The use of measuring cAMP metabolism as an assay for adenosine A1 receptor function has been previously described (Scammells, P., Baker, S., Belardinelli, L., and Olsson, R., 1994, Substituted 1,3-dipropylxanthines as irreversible antagonists of A1 adenosine receptors. J. Med. Chem 37: […], 1994).

Setting [4] is: ratio of EC50 in PC12 cells (A2) to EC50 in DDT cells (A1), A1 selectivity.

Each structure is given as a SMILES string. Read-outs that look alike come from different tables or passages of the source.

For `OC[C@H]1O[C@@H](n2cnc3c(N[C@@H]4CCOC4)ncnc32)[C@H](O)[C@@H]1O` [III], in test [1], the “A1 /A2” value is recorded as 0.0024. Moreover, the “A2 /A1” value in test [1] (setting [4]) is listed as 414. Further, the EC50 (in general, the concentration at which the effect is half-maximal) was 1.08 nM in test [2] and 448 nM in test [3].

On to `OC[C@H]1O[C@@H](n2cnc3c(NC4CCOC4)ncnc32)[C@H](O)[C@@H]1O` (some centres unmarked) [II, 6-(3-aminotetrahydrofuranyl)purine Riboside], for which, in test [1], the “A1 /A2” value stood at 0.0093. In addition, the “A2 /A1” value in test [1] (setting [4]) came to 107.6. The EC50 in test [2] came to 13 nM; in test [3] it was 1400 nM.

With `OC[C@H]1O[C@@H](n2cnc3c(NC4CCOCC4)ncnc32)[C@H](O)[C@@H]1O` [I, 6-(4-aminopyran)-purine Riboside], the “A2 /A1” value in test [1] came to 80.0. Also, the “A1 /A2” value in test [1] worked out at 0.012. Besides, the EC50 in test [2] was found to be 12 nM; in test [3], 970 nM.

Consider `O=C1NCCCC[C@@H]1Nc1ncnc2c1ncn2[C@@H]1O[C@H](CO)[C@@H](O)[C@H]1O` [IV], for which, in test [1], the “A1 /A2” value is recorded as 0.889. In addition, the “A2 /A1” value in test [1] (setting [4]) is 1.12. Also, the EC50 in test [2] was found to be 161 nM; in test [3], 181 nM.

For `OC[C@H]1O[C@@H](n2cnc3c(N[C@H]4CCOC4)ncnc32)[C@H](O)[C@@H]1O` [V, 6-(3-(S)-aminotetrahydrofuranyl)purine Riboside], in test [1], the “A1 /A2” value is reported as 0.00044. Besides, the “A2 /A1” value in test [1] (setting [4]) is recorded as 2258. Also, the EC50 in test [2] was 3.4 nM; in test [3], 7680 nM.
